The test system of this experiment is Pseudomonas putida (ATCC 12633). Nature of the experiment: Antimicrobial activity of mediators oxidized by Coprinus cinereus peroxidase (rCiP). The note with it: 50 μM mediator, rCiP 4 POXU/L, 0.5 mM hydrogen peroxide, 20 minutes at 40° C., pH 7; 6 corresponds to a total kill. It counts as cell-based. The procedure: Antibacterial activity of 4-aminophenol, 4-hydroxy-4′-dimethylamino azobenzene, 4,4′-biphenol, 10-methylphenoxazine and 4,4′-dihydroxydiphenyl ether was evaluated when oxidized by Coprinus cinereus peroxidase (rCiP) (available from Novozymes A/S).
Antimicrobial activity was determined on Pseudomonas putida (ATCC 12633), the cells were grown in Tryptone Soy Broth, TSB (Oxoid CM129) overnight, washed two times in sterile 0.9% saline and suspended in 50 mM HEPES buffer (Sigma H3375) at pH 7 to a cell concentration of approximately 10^6 CFU/ml. The mediators were added to the cell suspension to a final concentration of 50 μM, rCiP was added to the concentration 4 POXU/L and the enzyme reaction was started by addition of hydrogen peroxide to a final concentration of 0.5 mM. Antimicrobial activity was determined after 20 minutes incubation at 40° C., by a 10-fold dilution of the cell suspension into TSB substrate and incubation overnight. Antimicrobial activity was determined as log10 reduction, thus a log10 reduction of 2 corresponds to a kill of 99%.

Marks after values point to notes of the source that are not given here.

For `CN(C)c1ccc(N=Nc2ccc(O)cc2)cc1` [4-Hydroxy-4′-dimethylamino azobenzene], the Log10 reduction is given as 6*.
The same measure for `Oc1ccc(-c2ccc(O)cc2)cc1` [4,4′-Biphenol, 97%, 4,4′-Biphenol]: 1.5; for `Oc1ccc(Oc2ccc(O)cc2)cc1` [4,4′-Dihydroxyphenyl ether, 4,4′-Dihydroxydiphenyl ether]: 2.5.
The same measure for `Nc1ccc(O)cc1` [4-aminophenol]: 2.5; for `CN1c2ccccc2Oc2ccccc21` [10-Methylphenoxazine]: 3.
